From EP3265461B1, “VERBASCOSIDE DERIVATIVES” (Croda Italiana S.p.A., priority 2015, dated 2016)

Legend:
[1] = Oxidation stability as antioxidant power against the DPPH radical; assay type: physicochemical; settings: 100 µM DPPH in methanol, 15 min in the dark at room temperature, 515 nm
Method: The oxidation stability of the compounds of formula (I) was evaluated as a function of their antioxidant power, determined as the reactivity of the compound against the stable radical 2,2-diphenyl-1-picrylhydrazyl (DPPH) in solution. High reactivity means poor stability under oxidizing conditions.
A 100 µM solution of DPPH in methanol, prepared from a 1 mM solution, then diluted at 1:10 was used for the determination.
The following final dilutions (from a solution in methanol having a double concentration) of the compound of formula (I) to be analyzed were prepared: 500 µg/mL, 100 µg/mL, 50 µg/mL, 10 µg/mL, 5 µg/mL, 2.5 µg/mL, 1 µg/mL, 0.5 µg/mL, 0.1 µg/mL, 0.05 µg/mL, 0 µg/mL.
500 µl of the compound to be tested at a certain concentration and 500 µl of DPPH were placed in a cuvette, they were all mixed and incubated in the dark at room temperature for 15 min.
The solution was analyzed with a spectrophotometer at a wavelength of 515 nm (methanol as white).
The color in the cuvettes varies from violet (DPPH without compound of formula (I)) to straw-yellow (DPPH with maximum inhibitory concentration of the compound of formula (I)).
The percent inhibition of the radical reaction is defined as: [(Absmax(DPPHalone)−Abs(DPPH+compound))/Absmax] × 100. [formula] […]

[2] = Stability in gastric fluids (SGF), HPLC; assay type: in vitro ADME; settings: pH=1.6
Method: (§1) The stability of the compounds of formula (I) was measured under physiological conditions.
(§2) The stability measurement was conducted by means of analytic HPLC techniques with a UV detector at 330 nm. The half-life is reported (in hours).

Stability in blood, HPLC = assay type: in vitro ADME
Method: as §1, §2

[3] = tested on: platelet aggregation (PA); assay: Phase II study: arachidonic acid-induced platelet aggregation by light transmission aggregometry; assay type: in vivo, human; settings: platelets stimulated with 1 µM AA
Method: (§3) A randomized, double-blind Phase II study was conducted to evaluate verbascoside activity in modulating the platelet aggregation (PA) values on subjects with at least one cardiovascular risk factor, selected from: age over 65 years, diabetes mellitus, hypertension, smoke, hyperlipidemia, waist circumference greater than 102 cm in men or 88 cm in women. Patients under pharmacological treatment with platelet antiaggregants (aspirin, clopidogrel, ticlopidine, prasugrel, ticagrelor), with anticoagulants (e.g. warfarin) or with oral contraceptives, were excluded. Other exclusion criteria were: events of myocardial infarction, coronary revascularization (percutaneous or surgical), infarction, temporary ischemic attack, peripheral vascular pathology, and the consumption of corticosteroids and/or non-steroidal anti-inflammatory drugs in the last month.
(§4) The experimentation was conducted on 100 subjects. […]
(§5) PA was determined by means of light transmission aggregometry according to standard protocols. […] The aggregation was measured at 37°C with a PACKS-4 aggregometer (Helena Laboratories). The curves were recorded for 6 min. The aggregation was measured at a maximum aggregation (maximum PA) and at 5 min (delayed PA). […]

[4] = tested on: platelet aggregation (PA); assay: Phase II study: ADP-induced platelet aggregation by light transmission aggregometry; assay type: in vivo, human; settings: platelets stimulated with 5 µM ADP
Method: as §3, §4, §5

[5] = Metabolism in human liver; assay type: in vitro ADME
From the text: Moreover, it has also been determined that the derivatives (B), (C) and (D) are metabolized in human liver, whereas verbascoside (derivative (A)) is stable.

[6] = Stability in fed intestinal fluid (FESSIF), HPLC; assay type: in vitro ADME; settings: fed-state simulated intestinal fluid (FESSIF), pH=5, read-out: FESSIF t1/2
Method: as §1, §2

[7] = Stability in fasted intestinal fluid (FASSIF), HPLC; assay type: in vitro ADME; settings: pH=6.5
Method: as §1, §2

Inhibitory activity (IC50) [1]: 2 µg/mL
SGF t1/2 [2]: STABLE
Blood t1/2 (Stability in blood, HPLC): stable
metabolized in human liver [5]: stable
half-life [6]: > 24 h
FASSIF t1/2 [7]: stable
SMILES: C[C@@H]1O[C@@H](O[C@@H]2[C@@H](O)[C@H](OCCc3ccc(O)c(O)c3)O[C@H](CO)[C@H]2OC(=O)/C=C/c2ccc(O)c(O)c2)[C@H](O)[C@H](O)[C@H]1O [(A), Verbascoside]
Arachidonic acid-induced maximum PA ([3]; after 2 weeks of 50 mg/day, time 0 value 50±9%, p=0.4): 48±10%
Arachidonic acid-induced maximum PA ([3]; after 2 weeks of 100 mg/day, time 0 value 51±13%, p<0.01): 39±15%
ADP-induced maximum PA ([4]; after 2 weeks of 50 mg/day, time 0 value 58±8%, p=0.5): 56±9%
ADP-induced maximum PA ([4]; after 2 weeks of 100 mg/day, time 0 value 60±12%, p<0.01): 49±15%
